Like-named read-outs stand apart in the source and are kept apart here.
Columns and labels:
Type in all cases: biochemical
CDK2/CCNE1 = CDK2/CCNE1 (Homo sapiens, UniProt P24941); test: CDK2 homogeneous time-resolved fluorescence (HTRF) kinase assay; settings: CDK2/CCNE
Outline: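 TR-FRET read-out (665 nm, or 665/615 ratio) of Eu-antibody detection of phospho-4E-BP1 (Thr37/46) ULight peptide. Enzyme 3 nM, ATP 1 mM, peptide 50 nM, 1% DMSO; 60 min reaction at 23 °C after 20 min compound preincubation. IC50 from 11-point half-log titrations, top typically 10 μM.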

CDK4/CCND3 = CDK4/CCND3 (Homo sapiens, UniProt P11802); test: CDK4 homogeneous time-resolved fluorescence (HTRF) kinase assay; settings: CDK4/CCND
Outline: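 HTRF kinase assay, CDK4/CCND3 1.5 nM, ATP 1 mM, ULight-4E-BP1 peptide 50 nM, 23 °C, 60 min reaction after 20 min preincubation. Eu-anti-pThr37/46 antibody detection. 11-pt half-log curves from 10 μM → IC50.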

CDK1/CCNB1 = CDK1/CCNB1 (Homo sapiens, UniProt P06493); test: CDK1 homogeneous time-resolved fluorescence (HTRF) kinase assay; settings: CDK1/CCNB
Outline: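 0.5 nM CDK1/CCNB1 was preincubated 20 min at 23 °C with compound in HEPES pH-unspecified buffer (MgCl2, EGTA, DTT, Tween 20), then reacted 60 min with 1 mM ATP and 50 nM ULight-4E-BP1 (Thr37/46) peptide. EDTA-stopped reactions were detected with 2 nM Eu-anti-phospho antibody; IC50 from 11-point half-log titrations.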

CDK6/CCND1 = CDK6/CCND1 (Homo sapiens, UniProt Q00534); test: CDK6 homogeneous time-resolved fluorescence (HTRF) kinase assay; settings: CDK6/CCND
Outline: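 Recombinant CDK6/CCND1 (1 nM final) was preincubated with compound for 20 min at 23 °C in HEPES buffer with MgCl2, EGTA, DTT and Tween 20. Kinase reaction then ran 60 min at 23 °C with 1 mM ATP and 50 nM ULight-4E-BP1 (Thr37/46) peptide, and was stopped with EDTA.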

[1] = x = IC50 <25 nM, read-out: CDK2/CCNE IC50 (<25 nM)
[2] = x = IC50 >250 nM, read-out: CDK4/CCND IC50 (>250 nM column)
[3] = x = IC50 >250 nM, read-out: CDK1/CCNB IC50 (>250 nM column)
[4] = x = IC50 >250 nM, read-out: CDK6/CCND IC50 (>250 nM column)
[5] = x = IC50 25-250 nM, read-out: CDK2/CCNE IC50 (25-250 nM)
[6] = x = IC50 25-250 nM, read-out: CDK1/CCNB IC50 (25-250 nM)
[7] = x = IC50 <25 nM, read-out: CDK4/CCND IC50 (<25 nM)
[8] = x = IC50 25-250 nM, read-out: CDK6/CCND IC50 (25-250 nM)
[9] = x = IC50 25-250 nM, read-out: CDK4/CCND IC50 (25-250 nM)
[10] = 25-250 nM, read-out: CDK2/CCNE IC50, 25-250 nM
[11] = >250 nM, read-out: CDK4/CCND IC50, >250 nM
[12] = >250 nM, read-out: CDK1/CCNB IC50 >250 nM
[13] = >250 nM, 1 mM ATP, read-out: CDK6/CCND IC50, >250 nM
[14] = <25 nM, read-out: CDK2/CCNE IC50, <25 nM
[15] = 25-250 nM, read-out: CDK4/CCND IC50, 25-250 nM
[16] = 25-250 nM, 1 mM ATP, read-out: CDK6/CCND IC50, 25-250 nM

CDK4/CCND3, sequence (P11802 whole entry): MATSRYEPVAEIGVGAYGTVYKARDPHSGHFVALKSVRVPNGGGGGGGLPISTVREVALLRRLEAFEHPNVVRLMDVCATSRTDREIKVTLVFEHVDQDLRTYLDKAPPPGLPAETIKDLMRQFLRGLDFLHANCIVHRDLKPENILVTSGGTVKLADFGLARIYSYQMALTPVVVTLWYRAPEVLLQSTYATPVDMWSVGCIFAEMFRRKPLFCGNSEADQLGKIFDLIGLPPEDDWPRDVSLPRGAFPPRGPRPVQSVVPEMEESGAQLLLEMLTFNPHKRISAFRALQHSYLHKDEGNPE
CDK4/CCND3, sequence (P30281 whole entry partner): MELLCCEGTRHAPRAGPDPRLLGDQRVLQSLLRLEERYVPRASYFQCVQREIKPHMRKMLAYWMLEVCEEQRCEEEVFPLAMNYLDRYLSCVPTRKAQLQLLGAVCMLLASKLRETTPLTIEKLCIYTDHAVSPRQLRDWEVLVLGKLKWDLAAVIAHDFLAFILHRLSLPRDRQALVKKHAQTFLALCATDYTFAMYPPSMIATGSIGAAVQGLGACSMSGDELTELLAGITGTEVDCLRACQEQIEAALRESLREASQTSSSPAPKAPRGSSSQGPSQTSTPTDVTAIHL
CDK6/CCND1, sequence (Q00534 whole entry): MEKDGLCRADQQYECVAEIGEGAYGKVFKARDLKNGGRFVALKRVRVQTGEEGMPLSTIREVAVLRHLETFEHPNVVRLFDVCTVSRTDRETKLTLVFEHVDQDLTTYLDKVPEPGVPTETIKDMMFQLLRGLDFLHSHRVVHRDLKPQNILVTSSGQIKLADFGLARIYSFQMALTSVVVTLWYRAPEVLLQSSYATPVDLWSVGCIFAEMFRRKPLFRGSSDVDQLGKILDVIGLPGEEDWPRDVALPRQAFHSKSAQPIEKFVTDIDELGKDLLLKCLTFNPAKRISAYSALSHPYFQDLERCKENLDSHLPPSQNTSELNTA
CDK6/CCND1, sequence (P24385 whole entry partner): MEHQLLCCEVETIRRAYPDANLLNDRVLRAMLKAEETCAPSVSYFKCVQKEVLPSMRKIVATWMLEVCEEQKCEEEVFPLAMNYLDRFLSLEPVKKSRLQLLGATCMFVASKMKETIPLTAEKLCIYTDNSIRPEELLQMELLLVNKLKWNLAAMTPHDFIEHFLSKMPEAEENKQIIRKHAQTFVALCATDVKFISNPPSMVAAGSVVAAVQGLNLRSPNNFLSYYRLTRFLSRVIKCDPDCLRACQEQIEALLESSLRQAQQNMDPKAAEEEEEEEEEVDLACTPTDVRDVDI
CDK1/CCNB1, sequence (P06493 whole entry): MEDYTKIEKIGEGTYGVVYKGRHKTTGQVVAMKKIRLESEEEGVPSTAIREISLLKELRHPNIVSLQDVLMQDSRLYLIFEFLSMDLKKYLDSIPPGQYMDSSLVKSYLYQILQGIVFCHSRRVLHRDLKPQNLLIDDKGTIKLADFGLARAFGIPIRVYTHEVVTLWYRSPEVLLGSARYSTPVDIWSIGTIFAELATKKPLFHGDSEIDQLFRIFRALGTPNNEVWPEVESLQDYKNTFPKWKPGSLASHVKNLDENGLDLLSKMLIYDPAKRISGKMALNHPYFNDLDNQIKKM
CDK1/CCNB1, sequence (P14635 whole entry partner): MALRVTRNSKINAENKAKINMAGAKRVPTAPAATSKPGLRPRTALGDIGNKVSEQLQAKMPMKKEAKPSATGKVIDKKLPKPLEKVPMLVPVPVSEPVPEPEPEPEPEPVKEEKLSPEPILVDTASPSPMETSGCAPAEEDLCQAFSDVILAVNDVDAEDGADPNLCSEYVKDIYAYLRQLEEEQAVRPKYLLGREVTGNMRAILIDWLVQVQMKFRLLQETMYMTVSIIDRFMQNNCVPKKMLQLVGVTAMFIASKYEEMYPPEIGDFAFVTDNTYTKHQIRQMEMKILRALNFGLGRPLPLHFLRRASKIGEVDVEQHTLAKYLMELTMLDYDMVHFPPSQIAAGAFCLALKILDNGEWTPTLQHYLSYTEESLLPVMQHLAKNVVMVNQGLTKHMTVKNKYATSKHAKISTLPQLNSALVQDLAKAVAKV

SMILES | IC50 (CDK2/CCNE1; [1]) | IC50 (CDK4/CCND3; [2]) | IC50 (CDK1/CCNB1; [3]) | IC50 (CDK6/CCND1; [4]) | IC50 (CDK1/CCNB1; [6]) | IC50 (CDK6/CCND1; [8]) | IC50 (CDK1/CCNB1; [12]) | further results
CCC1(CC)C(=O)Nc2cc(C#Cc3nccc4cnc(Nc5ccc(S(=N)(=O)C(C)C)cc5)cc34)ccc21 (single isomer, unassigned) [Ex 414, 3,3-diethyl-6-((7-((4-(propan-2-ylsulfonimidoyl)phenyl)amino)-2,6-naphthyridin-1-yl)ethynyl)indolin-2-one] | < 25 nM | > 250 nM | > 250 nM | > 250 nM |  |  |  | 
CC(C)S(=N)(=O)c1ccc(Nc2cc3c(C#Cc4ccc5c(c4)NC(=O)C5(C)C)nccc3cn2)cc1 (single isomer, unassigned) [Ex 455, 3,3-dimethyl-6-((7-((4-(propan-2-ylsulfonimidoyl)phenyl)amino)-2,6-naphthyridin-1-yl)ethynyl)indolin-2-one] | < 25 nM |  |  |  | 25 to 250 nM | 25 to 250 nM |  | IC50 (CDK4/CCND3; [9]): 25 to 250 nM; IC50 (CDK4/CCND3; [7]): < 25 nM
CC(O)CN1CCC(C#Cc2nccc3cnc(Nc4ccc(S(C)(=O)=O)cc4)cc23)CC1 (single isomer, unassigned) [Ex 607, 1-(4-((7-((4-(methylsulfonyl)phenyl)amino)-2,6-naphthyridin-1-yl)ethynyl)piperidin-1-yl)propan-2-ol] | < 25 nM | > 250 nM | > 250 nM |  |  | 25 to 250 nM |  | 
Cc1c(-c2nccc3cnc(Nc4ccc(S(=N)(N)=O)cc4)cc23)ccc2c1cnn2CC(O)(C(F)(F)F)C(F)(F)F (single isomer, unassigned) [Ex 679, 4-((5-(4-methyl-1-(3,3,3-trifluoro-2-hydroxy-2-(trifluoromethyl)propyl)-1H-indazol-5-yl)-2,6-naphthyridin-3-yl)amino)benzenesulfonimidamide] | < 25 nM |  |  |  | 25 to 250 nM | 25 to 250 nM |  | IC50 (CDK4/CCND3; [9]): 25 to 250 nM
Cc1c(-c2nccc3cnc(Nc4ccc(S(=N)(=O)NC5CCC5)cc4)cc23)ccc2c1cnn2CC(O)(C(F)(F)F)C(F)(F)F (single isomer, unassigned) [Ex 680, N-cyclobutyl-4-((5-(4-methyl-1-(3,3,3-trifluoro-2-hydroxy-2-(trifluoromethyl)propyl)-1H-indazol-5-yl)-2,6-naphthyridin-3-yl)amino)benzenesulfonimidamide] |  |  |  |  |  |  | > 250 nM | IC50 (CDK2/CCNE1; [10]): 25 to 250 nM; IC50 (CDK4/CCND3; [11]): > 250 nM; IC50 (CDK6/CCND1; [13]): > 250 nM
Cc1c(-c2nccc3cnc(Nc4ccc(S(=N)(=O)NC5CC5)cc4)cc23)ccc2c1cnn2CC(O)(C(F)(F)F)C(F)(F)F (single isomer, unassigned) [Ex 681, N-cyclopropyl-4-((5-(4-methyl-1-(3,3,3-trifluoro-2-hydroxy-2-(trifluoromethyl)propyl)-1H-indazol-5-yl)-2,6-naphthyridin-3-yl)amino)benzenesulfonimidamide] |  |  |  |  |  |  | > 250 nM | IC50 (CDK2/CCNE1; [14]): < 25 nM; IC50 (CDK4/CCND3; [15]): 25 to 250 nM; IC50 (CDK6/CCND1; [13]): > 250 nM
CNS(=N)(=O)c1ccc(Nc2cc3c(-c4ccc5c(cnn5CC(O)(C(F)(F)F)C(F)(F)F)c4C)nccc3cn2)cc1 (single isomer, unassigned) [Ex 683, N-methyl-4-((5-(4-methyl-1-(3,3,3-trifluoro-2-hydroxy-2-(trifluoromethyl)propyl)-1H-indazol-5-yl)-2,6-naphthyridin-3-yl)amino)benzenesulfonimidamide] |  |  |  |  |  |  | > 250 nM | IC50 (CDK2/CCNE1; [14]): < 25 nM; IC50 (CDK4/CCND3; [15]): 25 to 250 nM; IC50 (CDK6/CCND1; [16]): 25 to 250 nM
Cc1c(-c2nccc3cnc(Nc4ccc(S(=N)(=O)Nc5ccccc5)cc4)cc23)ccc2c1cnn2CC(O)(C(F)(F)F)C(F)(F)F (single isomer, unassigned) [Ex 685, 4-((5-(4-methyl-1-(3,3,3-trifluoro-2-hydroxy-2-(trifluoromethyl)propyl)-1H-indazol-5-yl)-2,6-naphthyridin-3-yl)amino)-N-phenylbenzenesulfonimidamide] |  |  |  |  |  |  | > 250 nM | IC50 (CDK2/CCNE1; [10]): 25 to 250 nM; IC50 (CDK4/CCND3; [11]): > 250 nM; IC50 (CDK6/CCND1; [13]): > 250 nM
CC1(C)C(=O)Nc2cc(C#Cc3nccc4cnc(Nc5ccc(S(=N)(=O)NC6CCC6)cc5)cc34)ccc21 (single isomer, unassigned) [Ex 688, N-cyclobutyl-4-((5-((3,3-dimethyl-2-oxoindolin-6-yl)ethynyl)-2,6-naphthyridin-3-yl)amino)benzenesulfonimidamide] |  |  |  |  |  |  | > 250 nM | IC50 (CDK2/CCNE1; [14]): < 25 nM; IC50 (CDK4/CCND3; [15]): 25 to 250 nM; IC50 (CDK6/CCND1; [16]): 25 to 250 nM

Continued, in another order:

IC50 (CDK2/CCNE1; [1]) | IC50 (CDK4/CCND3; [2]) | IC50 (CDK1/CCNB1; [3]) | IC50 (CDK6/CCND1; [4]) | IC50 (CDK1/CCNB1; [6]) | IC50 (CDK6/CCND1; [8]) | IC50 (CDK1/CCNB1; [12]) | SMILES | further results
 | > 250 nM | > 250 nM | > 250 nM |  |  |  | N=S(=O)(c1ccc(Nc2cc3c(C#Cc4cccnc4N)nccc3cn2)cc1)C1CC1 (single isomer, unassigned) [Ex 417, (4-((5-((2-aminopyridin-3-yl)ethynyl)-2,6-naphthyridin-3-yl)amino)phenyl)(cyclopropyl)(imino)-l6-sulfanone] | IC50 (CDK2/CCNE1; [5]): 25 to 250 nM
< 25 nM | > 250 nM |  | > 250 nM | 25 to 250 nM |  |  | CCC1(CC)C(=O)Nc2cc(C#Cc3nccc4cnc(Nc5ccc(S(C)(=N)=O)cc5)cc34)ccc21 (single isomer, unassigned) [Ex 426, 3,3-diethyl-6-((7-((4-(S-methylsulfonimidoyl)phenyl)amino)-2,6-naphthyridin-1-yl)ethynyl)indolin-2-one] | 
< 25 nM |  |  |  | 25 to 250 nM | 25 to 250 nM |  | CC1(C)C(=O)Nc2cc(C#Cc3nccc4cnc(Nc5ccc(S(=N)(=O)C6CC6)cc5)cc34)ccc21 (single isomer, unassigned) [Ex 437, 6-((7-((4-(cyclopropanesulfonimidoyl)phenyl)amino)-2,6-naphthyridin-1-yl)ethynyl)-3,3-dimethylindolin-2-one] | IC50 (CDK4/CCND3; [7]): < 25 nM
< 25 nM |  |  | > 250 nM | 25 to 250 nM |  |  | CC1(C)C(=O)Nc2cc(C#Cc3nccc4cnc(Nc5ccc(S(C)(=N)=O)cc5)cc34)ccc21 (single isomer, unassigned) [Ex 451, 3,3-dimethyl-6-((7-((4-(S-methylsulfonimidoyl)phenyl)amino)-2,6-naphthyridin-1-yl)ethynyl)indolin-2-one] | IC50 (CDK4/CCND3; [9]): 25 to 250 nM
< 25 nM |  |  |  | 25 to 250 nM | 25 to 250 nM |  | CCS(=N)(=O)c1ccc(Nc2cc3c(C#Cc4ccc5c(c4)NC(=O)C5(C)C)nccc3cn2)cc1 (single isomer, unassigned) [Ex 462, 6-((7-((4-(ethylsulfonimidoyl)phenyl)amino)-2,6-naphthyridin-1-yl)ethynyl)-3,3-dimethylindolin-2-one] | IC50 (CDK4/CCND3; [9]): 25 to 250 nM
 | > 250 nM | > 250 nM | > 250 nM |  |  |  | CCS(=N)(=O)c1ccc(Nc2cc3c(C#Cc4cccnc4N)nccc3cn2)cc1 (single isomer, unassigned) [Ex 474, (4-((5-((2-aminopyridin-3-yl)ethynyl)-2,6-naphthyridin-3-yl)amino)phenyl)(ethyl)(imino)-l6-sulfanone] | IC50 (CDK2/CCNE1; [5]): 25 to 250 nM
 | > 250 nM | > 250 nM | > 250 nM |  |  |  | CS(=N)(=O)c1ccc(Nc2cc3c(C#Cc4cccnc4N)nccc3cn2)cc1 (single isomer, unassigned) [Ex 480, (4-((5-((2-aminopyridin-3-yl)ethynyl)-2,6-naphthyridin-3-yl)amino)phenyl)(imino)(methyl)-l6-sulfanone] | IC50 (CDK2/CCNE1; [5]): 25 to 250 nM

— patent publication US20260325533A1, “CDK INHIBITOR COMPOUNDS” (ALEKSIA THERAPEUTICS, INC., priority 2023, published 2026)
